Like-named read-outs stand apart in the source and are kept apart here.
Assays:
[1] = system: arachidonic acid-induced ear swelling; assay: Topical arachidonic acid-induced ear swelling model in mice (topical administration); type: in vivo, Male ICR mice
Description: Diethyl(2-cyanoethyl)phosphonate, was obtained from Sigma-Aldrich and used in this experiment.
The test compound, indomethacin (positive control), and vehicle (acetone:ethanol/1:1) were evaluated for anti-inflammatory activity in a topical arachidonic acid-induced ear swelling model in mice.
Male ICR mice weighing 22±2 g were used and randomly divided; the test compound and vehicle control had 10 mice, and indomethacin had 5 mice. Arachidonic Acid (0.5 mg in 20 μl of acetone:ethanol/1:1) was applied topically to the anterior and posterior surfaces of the right ear of each mice. Test substances (in vehicle) and vehicle, as listed in Table 1 were similarly applied 30 min before and 15 min after arachidonic acid application. The thickness of the right ear and the left ear was measured and the difference calculated as an indication of the inflammation in the right ear. Ear swelling was measured by a Dyer model micrometer gauge at 60 and 90 minutes after arachidonic acid application as an index of inflammation. Percent inhibition was calculated according to the formula: Ic−It/Ic×100, where Ic and It refers to increase of ear thickness (mm) in control and treated mice, respectively. An ANOVA was done, and if p<0.05, a Dunnett's t test was employed to calculate significant difference between vehicle control and test compound treated groups. […]

[2] = system: arachidonic acid-induced ear swelling; assay: Arachidonic acid-induced ear swelling in mice (intraperitoneal administration); type: in vivo; details: measured at 90 minutes
Description: The protocols of this experiment were similar to Example 3, except the following differences. Test substance diethyl(2-cyanoethyl)phosphonate was dissolved in PBS to generate 1, 3 and 10 mg/mL testing solutions. Vehicle (PBS) at 10 mL/kg and diethyl(2-cyanoethyl)phosphonate at 10 mL/kg (10, 30, and 100 mg/kg) were administered intraperitoneally at 1 hour, and again 15 minutes before arachidonic acid (0.5 mg/ear) challenge. The positive control dexamethasone was administered orally 3 hours before arachidonic acid.
An ANOVA was done, and if p<0.05, a Dunnett's t test was employed to calculate significant difference between vehicle control and treated groups. Significance is set at P<0.05 level.
(§1) An ANOVA was done, and if p<0.05, a Dunnett's t test was employed to calculate significant difference between vehicle control and test compound treated groups. A pairwise Student's t test was used to calculate differences between the dexamethasone group and the control group. Significance is set at P<0.05 level.

[3] = system: tail flick response to heat stimulus (49° C. water bath); assay: Tail flick test in mice (oral administration); type: in vivo
Description: Tail flick test is a test of the pain response in animals. Tail flick test is used in basic pain research and to measure the effectiveness of analgesics, by observing the tail flick reaction to heat in an animal. This test assesses the nociceptive response to a local pain stimulus, and the ability of a drug to inhibit this response.
Vehicle control (water) and test compound diethyl(2-cyanoethyl)phosphonate in water were administered by oral gavage to mice with a volume of 10 mL/kg, twice, at 60 and 15 minutes before the first tail flick measurement. The test compound was administered at a dosage of 10, 30, or 100 mg/kg in water. The positive control compound morphine was administered by subcutaneous injection at 8 mg/kg with a volume of 8 mL/kg, at 15 minutes before the first tail flick measurement. Each group had 10 mice.
The response of mice to heat stimulus was evaluated by measuring the time of tail-flick or tail-flick latency from 49° C. water bath. Briefly, the animal was placed in a restrainer with its tail hanging down. Approximately 2 inches of the tail was immersed in a beaker of water at 38±1° C. for about 30 seconds, and this was done twice to acclimate the animal to the procedure.
Subsequently, approximately 2 inches of the tail was immersed in a beaker of water at 49±1° C., at which point a timer was started.
Tail flick measurements were made 60, 80, 100, and 120 minutes post administration of the first dosage of test compound. An ANOVA was done, and if p<0.05, a Dunnett's t test was employed to calculate significant difference between vehicle control and test compound treated groups. A pairwise Student's t test was used to calculate differences between the morphine group and the control group. […] Analysis with p-values <0.05 is considered significant.

[4] = system: formalin-induced paw licking; assay: Formalin test in mice (oral administration); type: in vivo, Male CD-1 mice
Description: Formalin test is a model of continuous pain resulting from formalin-induced tissue injury. Nociceptive and inflammatory pain was induced by injection of a dilute formalin solution into the paw, resulting in nocifensive behavior including paw flinching. The formalin model encompasses inflammatory, neurogenic, and central mechanism of pain. The early phase of pain (from 0 to about 10 minutes) is due to nociceptive mechanism and the late phase of pain (from 10-40 minutes) is due to a combination of inflammatory pain and nociceptive mechanism. Pain behavior is assessed using manual paw licking measurements. The endpoints of the study are the number of paw licking events. (Hunskaar et al., Pain, 30:103-114, 1987; Li et al., Molecular Pain, 6:11, 2010)
Male CD-1 mice, about 34 g, were used in the study. Mice had free access to food and water, were maintained on a 12 hour: 12 hour light/dark schedule for the entire duration of the study, and housed in soft bedding five per cage.
Immediately prior to testing (at time 0), mice were restrained in a cloth and injected with 20 μL of a 5% formalin solution, subcutaneously into the dorsal surface of the left hind paw. Vehicle control (n=10, water) and test compound diethyl(2-cyanoethyl)phosphonate (n=9, in water) and were administered by oral gavage with a volume of 10 mL/kg to mice. The amounts of test compound were 10, 30, or 100 mg/kg per dose.
Positive control morphine was administered by subcutaneous injection at 4 mg/kg with a volume of 4 mL/kg to mice (n=10). […] The purpose of morphine is not to serve as a comparison with the test compound.
Morphine was subcutaneously administered once 15 minutes before formalin injection. The test compounds and vehicle control were orally administered twice (BID), at 60 and 15 minutes before formalin injection at time zero.
Following formalin injection, animals were placed in individual cages, and manually observed for 60 minutes. The licking events were recorded in five minute intervals continuously for a total of 60 minutes.
as §1, with “The number of licking events per minute was calculated between 0-10 minutes and 10-40 minutes for vehicle, positive control, and test compound. An” for “An”, “morphine” for “dexamethasone”

[5] = system: formalin-induced paw licking
Description: The test compound diethyl(2-cyanoethyl)phosphonate (375 mM in vehicle, n=16) and vehicle control (acetone:ethanol 1:1, n=16) were administered topically by submerging the mouse left hind paw in the respective solution for about 30 seconds. The paw was then withdrawn and wiped with tissue to avoid excess dermal drying.
Positive control morphine was administered by subcutaneous injection at 4 mg/kg with a volume of 4 mL/kg to mice (n=16).
Morphine was subcutaneously administered once 15 minutes before formalin injection. The test compounds and vehicle control were topically administered twice (BID), at 90 and 15 minutes before formalin injection.
Following formalin injection, animals were placed in individual cages, and manually observed for 60 minutes. The licking events were recorded in five minute intervals continuously for a total of 40 minutes.
The number of licking events per minute was calculated between 0-10 minutes and 10-40 minutes for vehicle, positive control, and test compound. A two-sample t-test was done to compare the vehicle group with the test compound group. Significance is set at P<0.05 level. The same statistics were done comparing the vehicle group with the positive control group.

[6] = system: IL-6, TNFα, IFNγ, MIP-2 and RANTES; assay: Pro-inflammatory cytokine release in rat challenged in vivo with lipopolysaccharide; details: given orally to rat, then lipopolysaccharide challenge in vivo

Compound: CCOP(=O)(CCC#N)OCC [Diethyl (2-cyanoethyl) phosphonate, Diethyl(2-cyanoethyl)phosphonate]
- Anti-inflammatory activity in mouse ear swelling model ([1]; applied topically, inflammation induced by arachidonic acid): anti-inflammatory
- % Inhibition of ear swelling ([1]; topical, 375 mM in acetone:ethanol (1:1), 20 μL (1.4 mg/ear) applied twice, 90 minutes after arachidonic acid): 55%
- % Inhibition of ear swelling ([2]; 10 mg/kg intraperitoneally at 1 hour and 15 minutes before arachidonic acid): −8%
- % Inhibition of ear swelling ([2]; 30 mg/kg intraperitoneally at 1 hour and 15 minutes before arachidonic acid): 0%
- % Inhibition of ear swelling ([2]; 100 mg/kg intraperitoneally at 1 hour and 15 minutes before arachidonic acid): 34%
- % Inhibition of ear swelling ([2]; 100 mg/kg intraperitoneally at 1 hour and 15 minutes before arachidonic acid, listed as tested compound): 37%
- Tail flick latency compared with vehicle-treated mice ([3]; 30 mg/kg oral, given twice, measured at 60, 80, 100, 120 minutes, FIG. 1): statistically significant tail flick latency at 60 and 80 minutes
- Tail flick latency compared with vehicle-treated mice ([3]; 100 mg/kg oral, given twice, measured at 60, 80, 100, 120 minutes, FIG. 1): statistically significant tail flick latency at 60 and 100 minutes
- Licks per min (Between 0-10 min) ([4]; 100 mg/kg oral BID, early phase): 3.1 Licks per min
- Licks per min (Between 10-40 min) ([4]; 100 mg/kg oral BID, late phase): 0.59 Licks per min
- Duration of efficacy ([4]; 100 mg/kg oral BID, after 40 minutes): did not last after 40 minutes
- Difference in the number of events vs control ([4]; 100 mg/kg oral BID, early phase 0-10 minutes): no statistically significant difference
- Reduction in the number of events vs vehicle ([4]; 100 mg/kg oral BID, late phase 10-40 minutes): statistically significant (p<0.05) reduction
- Licks per min (Between 0-10 min) ([5]; 375 mM topical BID (paw submerged), early phase): 4.0 Licks per min
- Licks per min (Between 10-40 min) ([5]; 375 mM topical BID (paw submerged), late phase): 1.1 Licks per min
- Difference in the number of events vs control ([5]; 375 mM topical, early phase 0-10 minutes): no statistically significant difference
- Reduction in the number of events vs vehicle ([5]; 375 mM topical, late phase 10-40 minutes): statistically significant (p<0.05) reduction
- Paw licking events after topical application alone ([5]; topical application without injection of formalin): negligible number of paw licking events
- Inhibition of pro-inflammatory cytokine release (IL-6, TNFα, IFNγ, MIP-2 and RANTES) [6]: effective in inhibiting pro-inflammatory cytokine release

Compound: CN1CC[C@]23c4c5ccc(O)c4O[C@H]2[C@@H](O)C=C[C@H]3[C@H]1C5 [Morphine, morphine, reference compound]
- Tail flick latency compared with vehicle-treated mice ([3]; mouse, in vivo): statistically significant tail flick latency at all measured time points
- Duration of efficacy ([4]; mouse, in vivo): did not last after 40 minutes
- Licks per min (Between 0-10 min) ([4]; mouse, in vivo): 2.1 Licks per min
- Licks per min (Between 10-40 min) ([4]; mouse, in vivo): 0.47 Licks per min
- Reduction in the number of events vs vehicle ([4]; mouse, in vivo): statistically significant (p<0.05) reductions
- Licks per min (Between 0-10 min) ([5]; mouse, in vivo): 2.5 Licks per min
- Licks per min (Between 10-40 min) ([5]; mouse, in vivo): 0.53 Licks per min
- Reduction in the number of events vs vehicle ([5]; mouse, in vivo): statistically significant (p<0.05) reductions

From patent US9149488B2, “Pharmaceutical composition and use of diethyl (2-cyanoethyl)phosphonate” (Olatec Industries LLC, priority 2013, dated 2015)
